# Reference: patent publication US6448256B1, “Antibiotic prodrugs” (University of Massachusetts, priority 1999, dated 2002)
# Where two headings read alike, the source gives them in different places.
# How the values were obtained:
# B. subtilis DNA pol III = B. subtilis DNA pol III (Bacillus subtilis, UniProt P13267); assay: Inhibition of B. subtilis DNA pol III (Ki); assay type: biochemical
# Description: (§1) To further investigate the antibacterial and/or DNA pol III inhibitory activity of various drug compounds, various ester-containing moieties N-linked to the EMAU core were produced as described in Example 1. These prodrugs were assayed for inhibition of B. subtilis DNA pol III and antibiotic activity against a number of bacteria.
# The competitive inhibitor constants (Ki) of selected EMAU compounds were determined with three different pol Ills: the pol III enzyme from Bacillus subtilis (BS pol III), and the pol III enzymes of the clinically relevant pathogens, Enterococcus fecalis (EF pol III) and Staphylococcus aureus (SA pol 111).
# B. subtilis [1] = assay: MIC against B. subtilis; assay type: cell-based; conditions: for MIC: Bacillus subtilis, Table 6, read-out: MIC B. subtilis; for MIC B. subtilis: Table 2
# Description: as §1
# (§2) The minimal inhibitory concentrations (MICs) of the four N3-substituted agents and EMAU were determined for B. subtilis (BS), methicillin-sensitive and resistant S. aureus (SA & MRSA), vancomycin-sensitive and resistant E. fecalis (EF& VREF), vancomycin-resistant E. fecium (VREF*), and E. coli (EC) as a Gram-negative control.
# S. aureus = assay: MIC against S. aureus (methicillin-sensitive); assay type: cell-based; conditions: for MIC: Staphylococcus aureus, read-out: MIC S. aureas; for MIC S. aureus: Table 2
# Description: as §1, §2
# E. fecalis = assay: MIC against E. fecalis; assay type: cell-based; conditions: for MIC: Table 6, read-out: MIC E. fecalis; for MIC E. fecalis: Table 2
# Description: as §1, §2
# B. subtilis [2] = assay: Antibacterial activity of crude compounds made by small scale synthesis; assay type: cell-based; conditions: crude reaction mixtures dissolved in DMSO, assayed directly
# Description: 6-Anilinouracils were synthesized using small scale synthetic methods. One milligram quantities of 3-(3-methoxypropyl)-6-chlorouracil were heated with 42 substituted anilines in micro-test tubes at 130° C. for 20 minutes. The reaction mixtures were dissolved in DMSO and assayed directly for antibacterial activity.
# MRSA = assay: MIC against methicillin-resistant S. aureus strain MRSA / MRSA1; assay type: cell-based; conditions: Table 2
# Description: as §1, §2
# MRSA2 = assay: MIC against methicillin-resistant S. aureus strain MRSA2; assay type: cell-based; conditions: Table 2
# Description: as §1, §2
# E. fecium = assay: MIC against E. fecium; assay type: cell-based; conditions: Table 2
# Description: as §1
# [3] = test system: vancomycin-resistant E. fecium; assay: MIC against vancomycin-resistant E. fecium (VRE, VREF*); assay type: cell-based; conditions: Table 2, vancomycin-resistant E. fecium
# Description: as §1, §2
# E. coli = assay: MIC against E. coli (Gram-negative control); assay type: cell-based; conditions: Table 2
# Description: as §1, §2
# [4] = Table 6, read-out: Ki, inhibition constant vs. B. subtilis DNA pol III
# [5] = Table 2, prodrugs having the EMAU core, read-out: Ki B. subtilis DNA Pol III
# Chain of B. subtilis DNA pol III (P13267 whole entry): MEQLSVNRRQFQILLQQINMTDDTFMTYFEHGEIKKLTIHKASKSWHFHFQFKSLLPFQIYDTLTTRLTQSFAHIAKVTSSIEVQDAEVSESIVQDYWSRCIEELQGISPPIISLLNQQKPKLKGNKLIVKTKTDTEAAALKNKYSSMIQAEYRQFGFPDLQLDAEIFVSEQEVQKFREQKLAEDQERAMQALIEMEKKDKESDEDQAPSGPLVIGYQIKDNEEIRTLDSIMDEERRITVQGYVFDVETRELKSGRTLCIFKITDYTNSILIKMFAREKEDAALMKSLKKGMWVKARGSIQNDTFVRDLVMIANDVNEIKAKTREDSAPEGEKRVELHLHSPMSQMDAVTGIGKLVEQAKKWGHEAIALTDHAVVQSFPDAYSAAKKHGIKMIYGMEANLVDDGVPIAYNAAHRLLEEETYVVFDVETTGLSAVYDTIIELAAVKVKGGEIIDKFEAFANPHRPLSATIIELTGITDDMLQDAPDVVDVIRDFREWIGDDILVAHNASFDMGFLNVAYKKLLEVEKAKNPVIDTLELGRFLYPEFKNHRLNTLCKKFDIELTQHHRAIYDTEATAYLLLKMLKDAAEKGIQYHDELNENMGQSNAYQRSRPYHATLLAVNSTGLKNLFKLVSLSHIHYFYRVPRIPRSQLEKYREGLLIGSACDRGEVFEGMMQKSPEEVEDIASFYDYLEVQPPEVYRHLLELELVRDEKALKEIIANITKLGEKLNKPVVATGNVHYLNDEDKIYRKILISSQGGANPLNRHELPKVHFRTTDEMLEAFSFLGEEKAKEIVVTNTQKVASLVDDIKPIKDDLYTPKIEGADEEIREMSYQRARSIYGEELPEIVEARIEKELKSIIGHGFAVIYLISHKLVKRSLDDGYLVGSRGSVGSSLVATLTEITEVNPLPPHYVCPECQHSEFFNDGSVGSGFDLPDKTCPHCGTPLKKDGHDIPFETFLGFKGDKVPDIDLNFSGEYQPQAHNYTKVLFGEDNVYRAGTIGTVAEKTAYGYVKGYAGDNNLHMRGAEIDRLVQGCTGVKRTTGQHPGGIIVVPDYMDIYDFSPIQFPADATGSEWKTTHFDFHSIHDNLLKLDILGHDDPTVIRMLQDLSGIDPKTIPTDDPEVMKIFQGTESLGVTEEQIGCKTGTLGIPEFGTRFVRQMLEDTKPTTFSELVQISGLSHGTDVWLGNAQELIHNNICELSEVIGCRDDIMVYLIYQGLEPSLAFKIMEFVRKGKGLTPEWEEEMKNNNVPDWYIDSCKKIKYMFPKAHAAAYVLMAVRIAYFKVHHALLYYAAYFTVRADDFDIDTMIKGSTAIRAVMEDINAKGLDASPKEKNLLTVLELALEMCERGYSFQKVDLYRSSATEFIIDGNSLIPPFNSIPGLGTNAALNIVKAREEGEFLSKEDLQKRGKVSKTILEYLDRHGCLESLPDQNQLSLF
compound,measurement,setting,value
"CCc1cc(Nc2cc(=O)n(CCCCI)c(=O)[nH]2)ccc1C [IB-EMAU, 3-(4-iodobutyl)-6-(3-ethyl-4-methylanilino)uracil]",Ki,B. subtilis DNA pol III; [4],360 nM
same,MIC,B. subtilis [1],< 3.1 µg/mL
same,MIC,S. aureus,12 µg/mL
same,MIC,E. fecalis,6 µg/mL
COCCCn1c(=O)cc(Nc2ccc(C)cc2)[nH]c1=O [Compound 4-Me],MIC B. subtilis,B. subtilis [2],50 µg/mL
CCc1cc(Nc2cc(=O)n(CCCCOC(=O)C(N)CO)c(=O)[nH]2)ccc1C.Cl (stereo not shown) [(CH2)4-OCOCH(CH2OH)NH3^+Cl^−],Ki,B. subtilis DNA pol III; [5],10 nM
same,MIC B. subtilis,B. subtilis [1],10 μ/ml
same,MIC S. aureus,S. aureus,>20 μ/ml
same,MIC MRSA,MRSA,>20 μ/ml
same,MIC MRSA2,MRSA2,>20 μ/ml
same,MIC E. fecalis,E. fecalis,20 μ/ml
same,MIC E. fecium,E. fecium,20 μ/ml
same,MIC VRE,[3],20 μ/ml
same,MIC E. coli,E. coli,>20 μ/ml
COCCCn1c(=O)cc(Nc2ccc(F)c(Cl)c2)[nH]c1=O [Compound 3-Cl-4-F],MIC B. subtilis,B. subtilis [2],50 µg/mL
CCc1cc(Nc2cc(=O)n(CCCCOC(=O)C(NC(=O)OC(C)(C)C)C(C)C)c(=O)[nH]2)ccc1C (stereo not shown) [(CH2)4-OCOCH(iPr)NH-Boc],Ki,B. subtilis DNA pol III; [5],4900 nM
same,MIC B. subtilis,B. subtilis [1],2.5 μ/ml
same,MIC S. aureus,S. aureus,>20 μ/ml
same,MIC MRSA,MRSA,>20 μ/ml
same,MIC MRSA2,MRSA2,>20 μ/ml
same,MIC E. fecalis,E. fecalis,>20 μ/ml
same,MIC E. fecium,E. fecium,>20 μ/ml
same,MIC VRE,[3],>20 μ/ml
same,MIC E. coli,E. coli,>20 μ/ml
CCc1cc(Nc2cc(=O)n(CCCCOC(=O)C(N)Cc3ccccc3)c(=O)[nH]2)ccc1C (stereo not shown) [(CH2)4-OCOCH(CH2Ph)NH3^+Cl^−],Ki,B. subtilis DNA pol III; [5],6200 nM
same,MIC B. subtilis,B. subtilis [1],>20 μ/ml
same,MIC S. aureus,S. aureus,>20 μ/ml
same,MIC MRSA,MRSA,>20 μ/ml
same,MIC MRSA2,MRSA2,>20 μ/ml
same,MIC E. fecalis,E. fecalis,>20 μ/ml
same,MIC E. fecium,E. fecium,>20 μ/ml
same,MIC VRE,[3],>20 μ/ml
same,MIC E. coli,E. coli,>20 μ/ml
"COCCCn1c(=O)cc(Nc2cc(C)cc(C)c2)[nH]c1=O [3,5-diMe]",MIC B. subtilis,B. subtilis [2],50 µg/mL
COCCCn1c(=O)cc(Nc2ccc(I)cc2)[nH]c1=O [Compound 4-I],MIC B. subtilis,B. subtilis [2],100 µg/mL
COCCCn1c(=O)cc(Nc2ccc(C(C)C)cc2)[nH]c1=O [Compound 4-iPR],MIC B. subtilis,B. subtilis [2],>100 µg/mL
"COCCCn1c(=O)cc(Nc2cc(Cl)cc(Cl)c2)[nH]c1=O [3,5-diCl]",MIC B. subtilis,B. subtilis [2],>100 µg/mL
CCc1cc(Nc2cc(=O)n(CCCCOC(=O)C(CO)NC(=O)OC(C)(C)C)c(=O)[nH]2)ccc1C (stereo not shown) [(CH2)4-OCOCH(CH2OH)NH-Boc],Ki,B. subtilis DNA pol III; [5],1500 nM
same,MIC B. subtilis,B. subtilis [1],5 μ/ml
same,MIC S. aureus,S. aureus,20 μ/ml
same,MIC MRSA,MRSA,20 μ/ml
same,MIC MRSA2,MRSA2,20 μ/ml
same,MIC E. fecalis,E. fecalis,5 μ/ml
same,MIC E. fecium,E. fecium,10 μ/ml
same,MIC VRE,[3],5 μ/ml
same,MIC E. coli,E. coli,>20 μ/ml
COCCCCn1c(=O)cc(Nc2ccc(C)c(I)c2)[nH]c1=O [ME-IMAU],Ki,B. subtilis DNA pol III; [4],540 nM
same,MIC,B. subtilis [1],< 3.1 µg/mL
same,MIC,S. aureus,6 µg/mL
same,MIC,E. fecalis,3 µg/mL
COCCCn1c(=O)cc(Nc2cccc([N+](=O)[O-])c2)[nH]c1=O [Compound 3-NO2],MIC B. subtilis,B. subtilis [2],>100 µg/mL
"COCCCn1c(=O)cc(Nc2cc(OC(F)(F)F)cc(OC(F)(F)F)c2)[nH]c1=O [3,5-diOCF3]",MIC B. subtilis,B. subtilis [2],>100 µg/mL
CCCc1ccc(Nc2cc(=O)n(CCCOC)c(=O)[nH]2)cc1 [Compound 4-Pr],MIC B. subtilis,B. subtilis [2],>100 µg/mL
COCCCn1c(=O)cc(Nc2ccc(C#N)cc2)[nH]c1=O [Compound 4-CN],MIC B. subtilis,B. subtilis [2],>100 µg/mL
"COCCCn1c(=O)cc(Nc2ccc(F)c(F)c2)[nH]c1=O [3,4-diF]",MIC B. subtilis,B. subtilis [2],>100 µg/mL
"COCCCn1c(=O)cc(Nc2ccc(Br)c(Br)c2)[nH]c1=O [3,4-diBr]",MIC B. subtilis,B. subtilis [2],3.13 µg/mL
COCCCn1c(=O)cc(Nc2cccc(I)c2)[nH]c1=O [Compound 3-I],MIC B. subtilis,B. subtilis [2],25 µg/mL
COCCCn1c(=O)cc(Nc2ccc(CC(C)C)cc2)[nH]c1=O [Compound 4-iBU],MIC B. subtilis,B. subtilis [2],>100 µg/mL
COCCCn1c(=O)cc(Nc2ccc(C)c(Cl)c2)[nH]c1=O [Compound 3-Cl-4-Me],MIC B. subtilis,B. subtilis [2],3.13 µg/mL
CCc1cc(Nc2cc(=O)n(CCCCOC(=O)C(C)N)c(=O)[nH]2)ccc1C (stereo not shown) [(CH2)4-OCOCHCH3NH3^+Cl^−],Ki,B. subtilis DNA pol III; [5],180 nM
same,MIC B. subtilis,B. subtilis [1],2.5 μ/ml
same,MIC S. aureus,S. aureus,20 μ/ml
same,MIC MRSA,MRSA,20 μ/ml
same,MIC MRSA2,MRSA2,20 μ/ml
same,MIC E. fecalis,E. fecalis,10 μ/ml
same,MIC E. fecium,E. fecium,10 μ/ml
same,MIC VRE,[3],10 μ/ml
same,MIC E. coli,E. coli,>20 μ/ml
COCCCn1c(=O)cc(Nc2cccc(C(C)O)c2)[nH]c1=O (stereo not shown) [3-CH(OH)CH3],MIC B. subtilis,B. subtilis [2],>100 µg/mL
COCCCn1c(=O)cc(Nc2ccc(Br)c(C(F)(F)F)c2)[nH]c1=O [Compound 3-CF3-4-Br],MIC B. subtilis,B. subtilis [2],>100 µg/mL
